Tests used:
[1] = target: Ribosomal protein S6 kinase alpha-5 (Homo sapiens) (UniProt O75582); experiment: Inhibition of human full length MSK1 expressed in baculovirus assessed as substrate phosphorylation using fluorescence-labelled peptides as substrate at 8 uM after 90 mins by microfluidic peptide phosphorylation assay
[2] = target: Mitogen-activated protein kinase kinase kinase kinase 4 (Homo sapiens) (UniProt O95819); experiment: Inhibition of human HGK catalytic domain expressed in baculovirus assessed as substrate phosphorylation using fluorescence-labelled peptides as substrate at 2 uM after 90 mins by microfluidic peptide phosphorylation assay
[3] = target: T1, Serine/threonine-protein kinase Sgk1 (Homo sapiens) (UniProt O00141); experiment: Inhibition of human truncated SGK1 expressed in baculovirus assessed as substrate phosphorylation using fluorescence-labelled peptides as substrate at 1000 uM after 90 mins by microfluidic peptide phosphorylation assay
T1 sequence (whole entry): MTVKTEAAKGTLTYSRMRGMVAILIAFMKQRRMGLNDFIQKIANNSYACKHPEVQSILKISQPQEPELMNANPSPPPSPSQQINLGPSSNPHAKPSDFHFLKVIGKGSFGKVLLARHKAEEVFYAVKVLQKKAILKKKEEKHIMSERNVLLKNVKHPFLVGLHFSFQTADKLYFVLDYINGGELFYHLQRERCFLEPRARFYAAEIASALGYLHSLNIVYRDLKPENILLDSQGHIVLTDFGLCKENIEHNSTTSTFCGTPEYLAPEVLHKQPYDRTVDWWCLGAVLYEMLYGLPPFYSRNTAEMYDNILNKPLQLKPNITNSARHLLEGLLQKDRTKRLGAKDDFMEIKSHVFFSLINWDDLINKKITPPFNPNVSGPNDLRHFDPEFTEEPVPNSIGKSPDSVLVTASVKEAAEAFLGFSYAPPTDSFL

[4] = target: T2, Protein kinase C epsilon type (Homo sapiens) (UniProt Q02156); experiment: Inhibition of human truncated PKC epsilon expressed in baculovirus assessed as substrate phosphorylation using fluorescence-labelled peptides as substrate at 1000 uM after 90 mins by microfluidic peptide phosphorylation assay
T2 sequence (whole entry): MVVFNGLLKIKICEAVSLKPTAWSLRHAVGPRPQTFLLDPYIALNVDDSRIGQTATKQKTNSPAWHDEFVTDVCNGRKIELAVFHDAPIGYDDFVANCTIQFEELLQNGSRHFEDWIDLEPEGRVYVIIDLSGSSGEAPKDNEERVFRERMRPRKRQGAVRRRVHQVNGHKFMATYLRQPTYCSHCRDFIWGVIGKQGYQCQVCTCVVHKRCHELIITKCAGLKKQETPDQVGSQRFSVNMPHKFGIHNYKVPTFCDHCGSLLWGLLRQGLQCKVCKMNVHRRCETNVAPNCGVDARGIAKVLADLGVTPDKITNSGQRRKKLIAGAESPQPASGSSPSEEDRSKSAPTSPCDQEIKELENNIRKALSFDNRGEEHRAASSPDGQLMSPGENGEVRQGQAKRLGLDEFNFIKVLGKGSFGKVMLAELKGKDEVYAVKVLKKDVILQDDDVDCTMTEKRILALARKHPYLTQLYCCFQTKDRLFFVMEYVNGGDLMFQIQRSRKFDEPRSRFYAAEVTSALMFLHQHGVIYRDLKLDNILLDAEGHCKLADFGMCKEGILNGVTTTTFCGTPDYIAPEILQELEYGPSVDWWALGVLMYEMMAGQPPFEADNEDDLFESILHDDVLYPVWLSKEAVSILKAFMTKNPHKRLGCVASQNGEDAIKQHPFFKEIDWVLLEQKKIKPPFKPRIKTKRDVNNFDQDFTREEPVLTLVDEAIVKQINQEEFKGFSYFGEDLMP

[5] = target: Platelet-derived growth factor receptor alpha (Homo sapiens) (UniProt P16234); experiment: Inhibition of human PDGFR alpha catalytic domain expressed in baculovirus assessed as substrate phosphorylation using fluorescence-labelled peptides as substrate at 1000 uM after 90 mins by microfluidic peptide phosphorylation assay
[6] = target: Protein kinase C alpha type (Homo sapiens) (UniProt P17252); experiment: Inhibition of human truncated PKC alpha expressed in baculovirus assessed as substrate phosphorylation using fluorescence-labelled peptides as substrate at 0.06 uM after 90 mins by microfluidic peptide phosphorylation assay
[7] = target: Vascular endothelial growth factor receptor 2 (Homo sapiens) (UniProt P35968); experiment: Inhibition of human KDR cytoplasmic domain expressed in baculovirus assessed as substrate phosphorylation using fluorescence-labelled peptides as substrate at 0.1 uM after 90 mins by microfluidic peptide phosphorylation assay
[8] = system: T3, Receptor-type tyrosine-protein kinase FLT3 (Homo sapiens), P36888 [D835Y]; experiment: Inhibition of human FLT3 D835Y mutant catalytic domain expressed in baculovirus assessed as substrate phosphorylation using fluorescence-labelled peptides as substrate at […] after 90 mins by microfluidic peptide phosphorylation assay
T3 sequence (whole entry): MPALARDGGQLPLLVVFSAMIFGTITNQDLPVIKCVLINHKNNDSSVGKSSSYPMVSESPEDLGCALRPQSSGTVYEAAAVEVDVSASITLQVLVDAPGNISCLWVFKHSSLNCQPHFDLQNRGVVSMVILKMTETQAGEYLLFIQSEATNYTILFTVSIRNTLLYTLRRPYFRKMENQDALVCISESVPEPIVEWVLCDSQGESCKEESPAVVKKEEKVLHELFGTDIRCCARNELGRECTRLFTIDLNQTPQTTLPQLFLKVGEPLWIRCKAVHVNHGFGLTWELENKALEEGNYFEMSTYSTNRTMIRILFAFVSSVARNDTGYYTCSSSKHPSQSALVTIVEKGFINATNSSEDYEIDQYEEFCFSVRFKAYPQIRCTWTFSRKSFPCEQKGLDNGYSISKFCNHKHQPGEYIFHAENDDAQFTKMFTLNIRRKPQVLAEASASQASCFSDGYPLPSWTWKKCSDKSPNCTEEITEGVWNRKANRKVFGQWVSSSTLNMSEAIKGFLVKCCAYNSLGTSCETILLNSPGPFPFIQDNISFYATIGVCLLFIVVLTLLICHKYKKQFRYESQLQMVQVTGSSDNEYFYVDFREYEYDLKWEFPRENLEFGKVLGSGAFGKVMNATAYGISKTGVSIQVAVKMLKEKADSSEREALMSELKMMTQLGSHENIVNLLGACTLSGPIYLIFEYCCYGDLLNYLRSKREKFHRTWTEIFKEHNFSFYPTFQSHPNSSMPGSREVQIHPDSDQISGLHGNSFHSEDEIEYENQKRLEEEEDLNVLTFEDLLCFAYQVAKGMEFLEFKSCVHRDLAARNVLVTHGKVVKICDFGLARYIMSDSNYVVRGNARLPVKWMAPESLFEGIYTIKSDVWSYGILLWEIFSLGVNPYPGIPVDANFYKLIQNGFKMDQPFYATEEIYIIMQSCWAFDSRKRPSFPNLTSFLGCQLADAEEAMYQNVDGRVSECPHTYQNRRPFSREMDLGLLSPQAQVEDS

[9] = target: Casein kinase I isoform alpha (Homo sapiens) (UniProt P48729); experiment: Inhibition of human full length CSNK1A1 expressed in baculovirus assessed as substrate phosphorylation using fluorescence-labelled peptides as substrate at […] after 90 mins by microfluidic peptide phosphorylation assay
Casein kinase I isoform alpha (Homo sapiens), sequence (P48729 2-337 limits assumed): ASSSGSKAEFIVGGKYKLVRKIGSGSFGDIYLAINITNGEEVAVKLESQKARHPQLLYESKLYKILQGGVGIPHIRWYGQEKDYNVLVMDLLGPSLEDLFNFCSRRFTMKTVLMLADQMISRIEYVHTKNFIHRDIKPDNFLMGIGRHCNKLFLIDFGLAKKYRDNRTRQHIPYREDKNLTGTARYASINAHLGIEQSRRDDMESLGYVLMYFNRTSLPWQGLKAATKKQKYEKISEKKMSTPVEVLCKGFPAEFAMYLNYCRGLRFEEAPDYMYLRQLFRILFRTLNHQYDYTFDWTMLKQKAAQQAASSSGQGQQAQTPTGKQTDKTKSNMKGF

Vascular endothelial growth factor receptor 2 (Homo sapiens), sequence (P35968 whole entry, the tested form may be a part): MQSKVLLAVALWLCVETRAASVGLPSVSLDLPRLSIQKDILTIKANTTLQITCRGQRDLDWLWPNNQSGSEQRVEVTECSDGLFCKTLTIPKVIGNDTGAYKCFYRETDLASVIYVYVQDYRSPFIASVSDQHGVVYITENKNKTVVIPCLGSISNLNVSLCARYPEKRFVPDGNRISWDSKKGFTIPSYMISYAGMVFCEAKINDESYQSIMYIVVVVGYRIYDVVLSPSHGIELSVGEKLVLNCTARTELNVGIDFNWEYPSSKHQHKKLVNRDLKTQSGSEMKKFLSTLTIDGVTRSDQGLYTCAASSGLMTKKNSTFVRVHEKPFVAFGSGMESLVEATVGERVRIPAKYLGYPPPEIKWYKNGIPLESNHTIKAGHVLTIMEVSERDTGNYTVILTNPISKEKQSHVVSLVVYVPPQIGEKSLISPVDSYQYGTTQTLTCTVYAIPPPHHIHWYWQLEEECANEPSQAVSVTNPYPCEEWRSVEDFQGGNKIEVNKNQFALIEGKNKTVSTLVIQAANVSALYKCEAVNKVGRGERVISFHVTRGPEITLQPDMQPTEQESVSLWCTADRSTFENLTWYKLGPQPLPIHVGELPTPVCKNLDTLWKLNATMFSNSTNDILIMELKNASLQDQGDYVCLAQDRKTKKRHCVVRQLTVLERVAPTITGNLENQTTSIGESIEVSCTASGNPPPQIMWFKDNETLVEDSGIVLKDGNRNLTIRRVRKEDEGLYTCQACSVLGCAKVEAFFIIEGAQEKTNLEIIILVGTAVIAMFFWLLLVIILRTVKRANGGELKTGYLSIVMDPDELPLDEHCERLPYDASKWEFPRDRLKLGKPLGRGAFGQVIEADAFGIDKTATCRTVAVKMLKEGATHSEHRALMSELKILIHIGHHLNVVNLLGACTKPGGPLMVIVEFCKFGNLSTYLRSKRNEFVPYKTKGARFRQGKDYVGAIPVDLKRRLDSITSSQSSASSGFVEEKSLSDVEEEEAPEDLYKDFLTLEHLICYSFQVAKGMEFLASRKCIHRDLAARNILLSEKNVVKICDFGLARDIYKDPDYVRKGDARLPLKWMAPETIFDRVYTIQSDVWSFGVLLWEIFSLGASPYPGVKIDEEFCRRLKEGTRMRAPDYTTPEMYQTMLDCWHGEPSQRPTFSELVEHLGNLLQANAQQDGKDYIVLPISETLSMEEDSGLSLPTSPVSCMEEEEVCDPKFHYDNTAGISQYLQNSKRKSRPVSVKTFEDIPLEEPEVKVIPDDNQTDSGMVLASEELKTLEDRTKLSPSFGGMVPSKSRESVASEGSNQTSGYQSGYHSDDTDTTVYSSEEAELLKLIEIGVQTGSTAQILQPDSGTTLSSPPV
Mitogen-activated protein kinase kinase kinase kinase 4 (Homo sapiens), sequence (O95819 2-1239 limits assumed): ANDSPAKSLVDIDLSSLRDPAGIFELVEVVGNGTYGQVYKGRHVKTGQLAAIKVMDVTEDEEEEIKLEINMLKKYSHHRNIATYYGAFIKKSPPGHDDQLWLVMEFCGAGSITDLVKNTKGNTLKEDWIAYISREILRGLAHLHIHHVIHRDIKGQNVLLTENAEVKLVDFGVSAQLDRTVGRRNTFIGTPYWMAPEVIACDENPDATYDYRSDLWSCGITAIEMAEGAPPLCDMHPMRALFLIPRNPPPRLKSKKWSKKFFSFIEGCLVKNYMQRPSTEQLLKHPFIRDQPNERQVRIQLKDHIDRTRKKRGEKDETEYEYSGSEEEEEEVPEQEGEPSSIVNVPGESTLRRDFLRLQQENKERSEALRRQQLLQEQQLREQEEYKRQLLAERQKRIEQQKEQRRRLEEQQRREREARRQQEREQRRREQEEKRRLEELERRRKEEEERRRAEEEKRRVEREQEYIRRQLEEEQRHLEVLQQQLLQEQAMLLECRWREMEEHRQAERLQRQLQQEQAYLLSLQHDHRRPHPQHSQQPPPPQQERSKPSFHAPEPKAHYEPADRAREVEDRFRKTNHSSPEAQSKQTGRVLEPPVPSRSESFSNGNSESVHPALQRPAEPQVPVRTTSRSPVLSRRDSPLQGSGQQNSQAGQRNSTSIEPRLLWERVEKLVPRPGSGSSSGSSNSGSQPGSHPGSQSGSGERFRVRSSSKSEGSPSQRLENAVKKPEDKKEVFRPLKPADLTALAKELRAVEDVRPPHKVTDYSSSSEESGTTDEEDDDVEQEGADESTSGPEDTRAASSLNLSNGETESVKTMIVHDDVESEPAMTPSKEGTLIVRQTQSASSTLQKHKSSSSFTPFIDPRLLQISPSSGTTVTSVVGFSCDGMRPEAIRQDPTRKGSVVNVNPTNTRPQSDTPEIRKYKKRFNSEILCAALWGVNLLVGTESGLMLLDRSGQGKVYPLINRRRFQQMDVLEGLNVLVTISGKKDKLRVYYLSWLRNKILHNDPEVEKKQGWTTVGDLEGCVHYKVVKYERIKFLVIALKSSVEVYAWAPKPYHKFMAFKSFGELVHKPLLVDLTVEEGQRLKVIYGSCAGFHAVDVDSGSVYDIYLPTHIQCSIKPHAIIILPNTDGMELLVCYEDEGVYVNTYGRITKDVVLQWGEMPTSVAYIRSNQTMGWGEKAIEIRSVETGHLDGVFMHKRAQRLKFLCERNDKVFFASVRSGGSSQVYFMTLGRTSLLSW
Platelet-derived growth factor receptor alpha (Homo sapiens), sequence (P16234 whole entry, the tested form may be a part): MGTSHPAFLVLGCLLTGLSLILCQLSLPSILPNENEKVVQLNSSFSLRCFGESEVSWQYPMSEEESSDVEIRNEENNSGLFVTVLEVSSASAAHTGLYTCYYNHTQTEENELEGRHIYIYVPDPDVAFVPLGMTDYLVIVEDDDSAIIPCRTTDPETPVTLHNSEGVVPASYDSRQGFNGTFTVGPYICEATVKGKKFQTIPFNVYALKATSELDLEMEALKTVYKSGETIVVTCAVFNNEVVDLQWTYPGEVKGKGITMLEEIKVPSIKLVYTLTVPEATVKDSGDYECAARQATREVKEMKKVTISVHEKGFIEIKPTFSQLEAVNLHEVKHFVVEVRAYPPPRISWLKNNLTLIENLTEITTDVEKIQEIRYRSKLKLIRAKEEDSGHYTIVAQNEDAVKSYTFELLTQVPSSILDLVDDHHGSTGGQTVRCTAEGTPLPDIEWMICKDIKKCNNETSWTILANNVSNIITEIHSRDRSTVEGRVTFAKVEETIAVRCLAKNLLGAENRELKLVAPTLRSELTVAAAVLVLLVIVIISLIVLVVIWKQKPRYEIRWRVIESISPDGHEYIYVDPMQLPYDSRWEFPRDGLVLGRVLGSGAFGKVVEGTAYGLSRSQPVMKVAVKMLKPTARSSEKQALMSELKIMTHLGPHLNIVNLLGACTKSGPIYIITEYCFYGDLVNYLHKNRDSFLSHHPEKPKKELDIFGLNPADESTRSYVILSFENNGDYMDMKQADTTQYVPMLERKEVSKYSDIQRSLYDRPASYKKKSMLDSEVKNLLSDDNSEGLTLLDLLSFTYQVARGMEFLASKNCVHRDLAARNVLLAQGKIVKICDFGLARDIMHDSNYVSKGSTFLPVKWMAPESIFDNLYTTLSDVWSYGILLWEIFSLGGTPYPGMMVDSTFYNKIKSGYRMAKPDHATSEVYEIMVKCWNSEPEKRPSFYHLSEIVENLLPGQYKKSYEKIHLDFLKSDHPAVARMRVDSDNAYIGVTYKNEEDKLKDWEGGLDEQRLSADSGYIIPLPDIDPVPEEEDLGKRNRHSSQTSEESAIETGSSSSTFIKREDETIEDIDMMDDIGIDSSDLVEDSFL

NCC1CCN(c2ncnc3[nH]ccc23)CC1
inhibition [1]: 68%

NC1CCN(c2ncnc3[nH]ccc23)CC1
inhibition [2]: 0%

c1cnc2[nH]ccc2c1
inhibition [3]: 94% | inhibition [4]: 38% | inhibition [5]: 31.5%

NC1(Cc2ccc(Cl)cc2)CCN(c2ncnc3[nH]ccc23)CC1
inhibition [6]: 30%

C[C@H](CN(C)C)Oc1nc(Nc2cc3cccc(Cl)c3cn2)cnc1C#N
inhibition [7]: 14%

COC(=O)c1cnc(Nc2cnc(C#N)cn2)cc1NCC1CCNCC1
inhibition [8]: 63% | inhibition [9]: 2%
